≈ marks a conversion by molar mass, not a printed value. Read-outs that look alike come from different tables or passages of the source.
What was measured:
[1] = tested on: Staphylococcus aureus 209 P JC-1; assay: in vitro antimicrobial activity, two-fold agar-plate dilution method, S. aureus 209 P JC-1; format: cell-based
Description: (§1) In vitro antimicrobial activity was determined by the two-fold agar-plate dilution method as described below.
(§2) One loopful of an overnight culture of each test strain in Trypticase-soy broth (10^8 viable cells per ml) was streaked on heart infusion agar (HI-agar) containing graded concentration of antibiotics, and the minimum inhibitory concentration (MIC) was expressed in terms of meg/ml after incubation at 37° C. for 20 hours.
(§3) The data in Table 1 below present a comparison between the 2-(C1 -C6 alkyl)-cephem compounds of the present invention and known cephem compounds structurally analogous to the present compounds, differing only by alkyl substitution in the 3-position. The in vitro tests of antimicrobial activity of the compared compounds were determined by the two-fold agar plate dilution method described as follows:
as §2, with “(HI sugar)” for “(HI-agar)”, “mcg/ml” for “meg/ml”

[2] = tested on: Staphylococcus aureus 206; assay: in vitro antimicrobial activity, two-fold agar plate dilution method, S. aureus 206; format: cell-based; details: Table 1, S. aureus 206, 37° C., 20 hours, read-out: minimum inhibitory concentration (MIC)
Description: (§4) The in vitro tests of antimicrobial activity of the compared compounds were determined by the two-fold agar plate dilution method described as follows: […]

[3] = tested on: Staphylococcus aureus 213; assay: in vitro antimicrobial activity, two-fold agar plate dilution method, S. aureus 213; format: cell-based; details: Table 1, S. aureus 213, 37° C., 20 hours, read-out: minimum inhibitory concentration (MIC)
Description: as §4

[4] = tested on: Staphylococcus aureus 226; assay: in vitro antimicrobial activity, two-fold agar plate dilution method, S. aureus 226; format: cell-based; details: Table 1, S. aureus 226, 37° C., 20 hours, read-out: minimum inhibitory concentration (MIC)
Description: as §4

[5] = tested on: Staphylococcus aureus 277; assay: in vitro antimicrobial activity, two-fold agar plate dilution method, S. aureus 277; format: cell-based; details: Table 1, S. aureus 277, 37° C., 20 hours, read-out: minimum inhibitory concentration (MIC)
Description: as §4

[6] = tested on: Staphylococcus aureus 278; assay: in vitro antimicrobial activity, two-fold agar plate dilution method, S. aureus 278; format: cell-based; details: Table 1, S. aureus 278, 37° C., 20 hours, read-out: minimum inhibitory concentration (MIC)
Description: as §4

[7] = tested on: Bacillus subtilis ATCC-6633; assay: in vitro antimicrobial activity, two-fold agar-plate dilution method, B. subtilis ATCC-6633; format: cell-based
Description: as §1, §2, §3
as §2, with “(HI sugar)” for “(HI-agar)”, “mcg/ml” for “meg/ml”

[8] = tested on: E. coli 327; assay: in vitro MIC against E. coli 327 at different inoculum sizes (Table 2); format: cell-based
[9] = tested on: E. coli 327; assay: protecting effect against experimental infections in mice; format: in vivo, mice (male ICR strain); details: E. coli 327, intraperitoneal inoculation 8.5×10^2 cells/mouse, subcutaneous one hour after challenge, survival after one week, probit method
Description: The following test describes the method of estimating the protecting effects of Applicants' compound (18) versus cited […], "Keflex", against experimental infections in mice.
Male ICR strain mice aged 4 weeks, each weighing 20-23 g were used in groups of 8 mice. The organisms precultured overnight at 37° C. on HI-agar were suspended in 5% mucin solution to obtain cell concentrations of 8.5×10^2 cells/mouse. Mice were inoculated intraperitoneally with 0.5 ml of the suspension. Each of the test antibiotics was given subcutaneously to the mice one hour after challenge. The ED50 values were found by the probit method from the number of surviving mice after one week of observation.

[10] = 209PJC1, Table 1, S. aureus 209 P JC-1, 37° C., 20 hours, read-out: minimum inhibitory concentration (MIC)
[11] = ATCC6633, Table 1, B. subtilis ATCC-6633, 37° C., 20 hours, read-out: minimum inhibitory concentration (MIC)
[12] = Escherichia coli, 327, E. coli 327, inoculum size 10^4
[13] = Escherichia coli, 327, E. coli 327, inoculum size 10^6
[14] = Escherichia coli, 327, E. coli 327, inoculum size 10^8
[15] = S. aureus 209-P JC-1, 37° C., 20 hours, HI-agar, read-out: MIC
[16] = ATCC6633, B. subtilis ATCC-6633, 37° C., 20 hours, HI-agar, read-out: MIC

Compound | MIC [1, 10] | MIC [2] | MIC [3] | MIC [4] | MIC [5] | MIC [6] | MIC [7, 11] | MIC [1, 15] | MIC [7, 16] | MIC [8, 12] | MIC [8, 13] | MIC [8, 14] | ED50 [9] | MIC ([1]; 209PJC1, 20 h, read-out: minimum inhibitory concentration (MIC)) | MIC ([7]; ATCC6633, 20 h, read-out: minimum inhibitory concentration (MIC))
CC1C=C(C(=O)O)N2C(=O)C(NC(=O)C(N)c3ccccc3)C2S1 (stereo not drawn) [Applicants' compound (18), 2-Methyl-7-(2-phenylglycyl)-amino-3-cephem-4-carboxylic acid] | 6.25 mg/L (≈ 18 µM) | 12.5 mg/L (≈ 36 µM) | 50 mg/L (≈ 144 µM) | 25 mg/L (≈ 72 µM) | 12.5 mg/L (≈ 36 µM) | 25 mg/L (≈ 72 µM) | 1.56 mg/L (≈ 4.49 µM) | – | – | 12.5 mg/L (≈ 36 µM) | 50 mg/L (≈ 144 µM) | 100 mg/L (≈ 288 µM) | 0.25 mg/mouse | – | –
CC1C=C(C(=O)O)N2C(=O)C(NC(=O)CSc3nncs3)[C@H]2S1 (stereo partly drawn) [Applicants' compound (11), 2-Methyl-7-[2-(1,3,4-thiadiazol-2-ylthio)acetamido]-3-cephem-4-carboxylic acid] | 1.56 mg/L (≈ 4.19 µM) | 3.13 mg/L (≈ 8.4 µM) | 6.25 mg/L (≈ 16.8 µM) | 3.13 mg/L (≈ 8.4 µM) | 3.13 mg/L (≈ 8.4 µM) | 6.25 mg/L (≈ 16.8 µM) | 0.78 mg/L (≈ 2.09 µM) | 1.56 mg/L (≈ 4.19 µM) | 0.78 mg/L (≈ 2.09 µM) | – | – | – | – | – | –
CC1=C(C(=O)O)N2C(=O)C(NC(=O)C(N)c3ccccc3)[C@H]2SC1 (stereo partly drawn) [cited compound (18), 3-Methyl-7-(2-phenylglycyl)amino-3-cephem-4-carboxylic acid, reference compound] | – | 6.25 mg/L (≈ 18 µM) | 12.5 mg/L (≈ 36 µM) | 12.5 mg/L (≈ 36 µM) | 3.13 mg/L (≈ 9.01 µM) | 3.13 mg/L (≈ 9.01 µM) | – | – | – | 6.25 mg/L (≈ 18 µM) | 12.5 mg/L (≈ 36 µM) | 100 mg/L (≈ 288 µM) | 1.06 mg/mouse | 3.13 mg/L (≈ 9.01 µM) | 1.56 mg/L (≈ 4.49 µM)
CC1C=C(C(=O)O)N2C(=O)C(NC(=O)Cc3cccc(Cl)c3)[C@H]2S1 (stereo partly drawn) [Applicants' compound (6), 2-Methyl-7-[2-(3-chlorophenyl)acetamido]-3-cephem-4-carboxylic acid] | 0.1 mg/L (≈ 0.273 µM) | 0.39 mg/L (≈ 1.06 µM) | 0.3 mg/L (≈ 0.818 µM) | 0.2 mg/L (≈ 0.545 µM) | 0.78 mg/L (≈ 2.13 µM) | 0.39 mg/L (≈ 1.06 µM) | 0.2 mg/L (≈ 0.545 µM) | 0.1 mg/L (≈ 0.273 µM) | 0.2 mg/L (≈ 0.545 µM) | – | – | – | – | – | –
C=CCSCC(=O)NC1C(=O)N2C(C(=O)O)=C(C)CS[C@H]12 (stereo partly drawn) [cited compound (14), 3-Methyl-7-[2-(allylthio)acetamido]-3-cephem-4-carboxylic acid, reference compound] | 6.25 mg/L (≈ 19 µM) | 6.25 mg/L (≈ 19 µM) | 12.5 mg/L (≈ 38.1 µM) | 6.25 mg/L (≈ 19 µM) | 6.25 mg/L (≈ 19 µM) | 6.25 mg/L (≈ 19 µM) | 3.13 mg/L (≈ 9.53 µM) | – | – | – | – | – | – | – | –
CC1C=C(C(=O)O)N2C(=O)C(NC(=O)CSc3ccccc3)C2S1 (stereo not drawn) [Applicants' compound (9), 2-Methyl-7-(2-phenylthioacetamido)-3-cephem-4-carboxylic acid] | 0.2 mg/L (≈ 0.549 µM) | 0.39 mg/L (≈ 1.07 µM) | 0.39 mg/L (≈ 1.07 µM) | 0.39 mg/L (≈ 1.07 µM) | 1.56 mg/L (≈ 4.28 µM) | 0.78 mg/L (≈ 2.14 µM) | 0.2 mg/L (≈ 0.549 µM) | 0.2 mg/L (≈ 0.549 µM) | 0.2 mg/L (≈ 0.549 µM) | – | – | – | – | – | –
CC1=C(C(=O)O)N2C(=O)C(NC(=O)Cc3cccs3)[C@H]2SC1 (stereo partly drawn) [cited compound (5), 3-Methyl-7-[2-(2-thienyl)acetamido]-3-cephem-4-carboxylic acid, reference compound] | 3.13 mg/L (≈ 9.25 µM) | 3.13 mg/L (≈ 9.25 µM) | 12.5 mg/L (≈ 36.9 µM) | 12.5 mg/L (≈ 36.9 µM) | 12.5 mg/L (≈ 36.9 µM) | 6.25 mg/L (≈ 18.5 µM) | 0.78 mg/L (≈ 2.3 µM) | – | – | – | – | – | – | – | –

Now from value to compound, other results behind:

MIC [1, 10] | MIC [2] | MIC [3] | MIC [4] | MIC [5] | MIC [6] | MIC [7, 11] | MIC [1, 15] | MIC [7, 16] | Compound | MIC [8, 12] | MIC [8, 13] | MIC [8, 14] | ED50 [9] | MIC ([1]; 209PJC1, 20 h, read-out: minimum inhibitory concentration (MIC)) | MIC ([7]; ATCC6633, 20 h, read-out: minimum inhibitory concentration (MIC))
3.13 mg/L (≈ 8.98 µM) | 12.5 mg/L (≈ 35.9 µM) | 25 mg/L (≈ 71.8 µM) | 12.5 mg/L (≈ 35.9 µM) | 12.5 mg/L (≈ 35.9 µM) | 12.5 mg/L (≈ 35.9 µM) | 1.56 mg/L (≈ 4.48 µM) | – | – | CC1=C(C(=O)O)N2C(=O)C(NC(=O)C(O)c3ccccc3)[C@H]2SC1 (stereo partly drawn) [cited compound (7), 3-Methyl-7-(2-hydroxy-2-phenylacetamido)-3-cephem-4-carboxylic acid, reference compound] | – | – | – | – | – | –
0.39 mg/L (≈ 1.07 µM) | 0.39 mg/L (≈ 1.07 µM) | 0.78 mg/L (≈ 2.14 µM) | 1.56 mg/L (≈ 4.28 µM) | 0.39 mg/L (≈ 1.07 µM) | 0.39 mg/L (≈ 1.07 µM) | 0.39 mg/L (≈ 1.07 µM) | – | – | CC1=C(C(=O)O)N2C(=O)C(NC(=O)CSc3ccccc3)C2SC1 (stereo not drawn) [cited compound (9), 3-Methyl-7-(2-phenylthioacetamido)-3-cephem-4-carboxylic acid, reference compound] | – | – | – | – | – | –
0.78 mg/L (≈ 2.24 µM) | 1.56 mg/L (≈ 4.48 µM) | 1.56 mg/L (≈ 4.48 µM) | 1.56 mg/L (≈ 4.48 µM) | 6.25 mg/L (≈ 17.9 µM) | 1.56 mg/L (≈ 4.48 µM) | 0.39 mg/L (≈ 1.12 µM) | 0.78 mg/L (≈ 2.24 µM) | 0.39 mg/L (≈ 1.12 µM) | CC1C=C(C(=O)O)N2C(=O)C(NC(=O)C(O)c3ccccc3)[C@H]2S1 (stereo partly drawn) [Applicants' compound (7), 2-Methyl-7-(2-hydroxy-2-phenylacetamido)-3-cephem-4-carboxylic acid] | – | – | – | – | – | –
1.56 mg/L (≈ 3.44 µM) | 12.5 mg/L (≈ 27.6 µM) | 12.5 mg/L (≈ 27.6 µM) | 12.5 mg/L (≈ 27.6 µM) | 12.5 mg/L (≈ 27.6 µM) | 12.5 mg/L (≈ 27.6 µM) | 0.78 mg/L (≈ 1.72 µM) | – | – | CC1=C(C(=O)O)N2C(=O)C(NC(=O)C(OC(=O)c3ccncc3)c3ccccc3)C2SC1 (stereo not drawn) [cited compound (4), reference compound] | – | – | – | – | – | –
